Reference: PMC11434749, “In Vitro Interaction of Binuclear Copper Complexes with Liver Drug-Metabolizing Cytochromes P450” (Pharmaceuticals, 2024)

What was measured:
CYP3A4 = assay: Inhibition of CYP3A4 activity (testosterone 6β-hydroxylation) in human liver microsomes; format: in vitro ADME; details: HLM, testosterone 100 µmol·L^−1, preincubation 30 min at 37 °C, Mean ± S.D.
Procedure: (§1) The following enzyme assays were performed to determine the activities of specific CYP enzymes: CYP1A2, 7-ethoxyresorufin O-deethylation; CYP2A6, coumarin 7-hydroxylation; CYP2B6, 7-ethoxy-4-(trifluoromethyl) coumarin (EFC) O-deethylation; CYP2C8 paclitaxel 6α-hydroxylation; CYP2C9, diclofenac 4′-hydroxylation; CYP2C19, diazepam N-desmethylation; CYP2D6, bufuralol 1′-hydroxylation; CYP2E1, chlorzoxazone 6-hydroxylation; and CYP3A4/5, testosterone 6β-hydroxylation. […]
(§2) For the determination of metabolites formed from specific substrates, a Prominence LC-20A HPLC system (Shimadzu, Kyoto, Japan) with UV detection or fluorescence detection was used (see Table 2). […]
(§3) Initially, for each enzyme assay, a preliminary experiment was carried out to determine Km and Vmax to obtain the appropriate concentration of the specific substrates for the inhibition experiments (the substrate concentration was chosen in the range corresponding to the value of the Km for each particular reaction). Data were analyzed using the Sigma plot software, as mentioned above, with spectral studies. […] In all cases, the inhibition of individual CYP activities was evaluated by plotting the respective remaining activity against the inhibitor concentration.

CYP2C8 = target: T1, CYP2C8 (Homo sapiens, UniProt P10632); assay: Inhibition of CYP2C8 activity (paclitaxel 6α-hydroxylation) in human liver microsomes; format: in vitro ADME; details: HLM, paclitaxel 50 µmol·L^−1, preincubation 30 min at 37 °C, Mean ± S.D.
T1 construct: Pooled human liver microsomes were obtained from Biopredic (Rennes, France); tissue Biopredic (Rennes, France); host or cells: pooled human liver microsomes, seventeen donors
T1 sequence (P10632 1-490): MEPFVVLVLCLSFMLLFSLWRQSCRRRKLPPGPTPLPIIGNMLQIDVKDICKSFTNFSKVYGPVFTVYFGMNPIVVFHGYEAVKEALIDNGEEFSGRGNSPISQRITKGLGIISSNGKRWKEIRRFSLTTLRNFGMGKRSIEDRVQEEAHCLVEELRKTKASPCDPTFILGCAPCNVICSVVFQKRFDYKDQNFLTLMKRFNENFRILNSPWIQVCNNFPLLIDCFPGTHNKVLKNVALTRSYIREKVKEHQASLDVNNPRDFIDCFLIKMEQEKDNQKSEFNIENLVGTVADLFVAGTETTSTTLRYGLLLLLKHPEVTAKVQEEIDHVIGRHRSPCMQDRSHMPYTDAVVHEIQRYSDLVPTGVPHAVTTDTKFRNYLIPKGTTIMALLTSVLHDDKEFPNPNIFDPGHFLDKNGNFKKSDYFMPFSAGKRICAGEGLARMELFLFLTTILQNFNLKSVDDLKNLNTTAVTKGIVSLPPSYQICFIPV
Procedure: as §1, §2, §3

HLM CYP enzymes = assay: Spectral study (binding difference spectra) of the interaction with HLM CYP enzymes; design: species or system human; details: for Kd: HLM, CYP 1 µmol·L^−1 in 50 mmol·L^−1 potassium phosphate buffer pH 7.4, absorbance change at about 417 nm, room temperature, read-out: spectroscopic binding constant (KS); for mode of binding to HLM CYP enzymes (difference spectra): maximum at about 380 nm, minimum at about 417 nm (Type I binding spectra)
From the text: Spectral studies in the Soret region were used to detect the substrate-induced difference spectra of human liver microsomal (HLM) CYPs. […] The spectral change corresponds to the formation of a maximum formed at about 380 nm and a minimum at about 417 nm (Figure 2). The values of the corresponding spectroscopic binding constant (KS) for the tested compounds were 39.50 ± 10.06 µmol·L^−1 and 44.86 ± 9.88 µmol·L^−1, respectively. These values indicate the relatively specific binding of these complexes on CYPs.
Figure 2 Spectral determination of the interaction between tested complexes No. 5 (a) and No. 6 (b) and CYP in HLM. […] The concentration of CYP in microsomal preparation, 1 µmol·L^−1 in 50 mmol·L^−1 potassium phosphate buffer (pH 7.4).
The binding difference spectra of the interactions of complex No. 5 and complex No. 6 with microsomal CYP enzymes were followed according to established procedures. The cuvette contained HLM that was diluted to a final concentration of CYP 1 µmol·L^−1 in 50 mmol·L^−1 potassium phosphate buffer (pH 7.4). The tested compounds were dissolved in the same buffer, and the concentration ranges in experiments were 0–183 µmol·L^−1, obtained by diluting a 5 mmol·L^−1 stock solution. Spectra were recorded at room temperature by repetitive scanning between 300 and 700 nm at a scan speed of 200 nm/s. The baseline of the reference cuvette contained HLM diluted to the final concentration of CYP 1 µmol·L^−1 in 50 mmol·L^−1 potassium buffer (pH 7.4). Spectra were recorded on a Varian 4000 UV/VIS spectrophotometer (Varian, Palo Alto, CA, USA). The absorbance change at about 417 nm was plotted against the concentration of the tested compounds. Data were analyzed using the Sigma Plot v. 8.0 graphing software (Jandel Scientific, Chicago, IL, USA).

E. coli = system: E. coli; design: method as in doi:10.1016/j.ica.2022.121273; details: Gram-negative; cited from earlier work
S. aureus = system: S. aureus; design: method as in doi:10.1016/j.ica.2022.121273; details: Gram-positive; cited from earlier work

Compound: CN(C)CCN(C)CCN(C)C.CN(C)CCN(C)CCN(C)C.O.O.O=C([O-])/C=C/C(=O)[O-].[Cu+2].[Cu+2].[O-][Cl+3]([O-])([O-])[O-].[O-][Cl+3]([O-])([O-])[O-] [Complex No. 5, [Cu2(μ-fu)(pmdien)2(H2O)2](ClO4)2]
- IC50 (CYP3A4): 3.72 ± 0.23 µM
- IC50 (CYP2C8): 3.66 ± 0.19 µM
- Kd (HLM CYP enzymes): 39.5 ± 10.1 µM
- mode of binding to HLM CYP enzymes (difference spectra) (HLM CYP enzymes): bind to HLM CYP enzymes as substrates
- MIC E. coli (E. coli): 8.44 µg/mL
- MIC S. aureus (S. aureus): 1.05 µg/mL

Compound: CN(C)CCN(C)CCN(C)C.CN(C)CCN(C)CCN(C)C.O.O.O=C([O-])CCSSCCC(=O)[O-].[Cu+2].[Cu+2].[O-][Cl+3]([O-])([O-])[O-].[O-][Cl+3]([O-])([O-])[O-] [Complex No. 6, [Cu2(μ-dtdp)(pmdien)2(H2O)2](ClO4)2]
- IC50 (CYP3A4): 3.62 ± 0.27 µM
- IC50 (CYP2C8): 3.4 ± 0.1 µM
- Kd (HLM CYP enzymes): 44.9 ± 9.88 µM
- mode of binding to HLM CYP enzymes (difference spectra) (HLM CYP enzymes): bind to HLM CYP enzymes as substrates
- MIC E. coli (E. coli): 16.88 µg/mL
- MIC S. aureus (S. aureus): 8.44 µg/mL
